Earlier results on one compound are cited in patent US11946086B2, “Gene involved in synthesis of cyclic peptide compound, method for producing cyclic peptide compound using the same, and transformant comprising the same” (NATIONAL INSTITUTE OF ADVANCED INDUSTRIAL SCIENCE AND …, priority 2017, dated 2024).

Non-standard residues stand in square brackets, D forms with d. Residues, ends and D or L forms follow the SMILES beside them. NMeI = CC[CH](C)[CH](NC)C(=O)O; NMeD = CN[CH](CC(=O)O)C(=O)O; NMeV = CN[CH](C(=O)O)C(C)C; Pip = O=C(O)[CH]1CCCCN1; Lac = C[CH](O)C(=O)O

The test system of this data set is plant pathogenic bacteria, and, in particular, fungi. The following applies: against plant pathogenic bacteria.

As for `CCC(C)C1C(=O)NCC(=O)N(C)C(C(C)C)C(=O)NC(Cc2ccc(OC)cc2)C(=O)OC(C)C(=O)N2CCCCC2C(=O)N(C)C(C(C)C)C(=O)NC(C(C)C)C(=O)N(C)C(CC(=O)O)C(=O)N(C)C(C(C)C)C(=O)N1C` (stereo not shown) [KK-1, Tyrosine, N-[N-[N-[N-[N-[N-[N-[N-[[1-(2-hydroxy-1-oxopropyl)-2-piperidinyl]carbonyl]-N-methylvalyl]valyl]-N-methyl-a-aspartyl]-N-methylvalyl]-N-methylisoleucyl]glycyl]-N-methylvalyl]-O-methyl-, d2-lactone (9CI)] (cyclo(G[NMeV]Y(Me)[Lac][Pip][NMeV]V[NMeD][NMeV][NMeI]); configuration not given here), the bactericidal activity result is reported as “potent bactericidal activity”.
